This note sets out measurements from patent publication US11243207B2, “Assessing and treating cancer” (Mayo Foundation for Medical Education and Research, priority 2018, dated 2022).

The target in one data set is T1, SCD1 (Mus musculus, UniProt P13516).
T1 construct: Each assay (100 μL) contained 50 μg of microsomes; from tissue; host or cells: mouse liver microsomes
T1 sequence (P13516 1-355): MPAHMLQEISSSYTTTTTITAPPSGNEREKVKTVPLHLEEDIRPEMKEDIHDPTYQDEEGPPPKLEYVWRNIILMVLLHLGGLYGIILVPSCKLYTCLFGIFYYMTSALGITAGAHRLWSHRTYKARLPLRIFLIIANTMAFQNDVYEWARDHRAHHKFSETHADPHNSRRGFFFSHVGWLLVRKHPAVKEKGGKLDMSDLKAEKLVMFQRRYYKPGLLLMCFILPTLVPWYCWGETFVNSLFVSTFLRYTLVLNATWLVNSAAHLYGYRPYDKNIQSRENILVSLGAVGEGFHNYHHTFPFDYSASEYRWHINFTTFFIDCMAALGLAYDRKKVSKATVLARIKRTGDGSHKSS
Kind of data set: Inhibition of oleoyl CoA biosynthesis by mouse liver microsomes (13C18-stearoyl CoA conversion, LC/MS). Type of data set: biochemical. The procedure: Pharmacokinetic assessment was performed for SSI-4 administered to fasted male C57BL/6 mice either intravenously (IV) or by oral gavage (PO) in DMSO:PEG400:water (10:70:20) as a clear solution at 5 mg/mL (IV dosing), and 1.3 or 10 mg/mL (respectively for the PO dosing). Serum analysis was performed by LC-MS-MS. PK calculation settings were obtained using the Phoenix WinNonlin 6.3 program, using either the Noncompartmental model 201 (IV bolus input) or Noncompartmental model 200 (extravascular input). Microsomes were isolated from murine liver using Microsome Isolation Kit (BioVision). Each assay (100 μL) contained 50 μg of microsomes, 1 μL of DMSO (for no drug controls) or DMSO-solubilized SCD1 inhibitor, 1 mM reduced NADH, 60 µM coenzyme A, 1 mM ATP, 1 mM DTT, and 5 mM MgCl2 in 100 mM sodium phosphate buffer (pH 7.4). […] To quantify biotransformation of 13C18-stearoyl CoA to 13C18-oleoyl CoA for drug treatments relative to vehicle controls, supernatants were evaluated using the LC/MS2 acyl CoA quantitation method of […] et al. and adapting selected reaction monitoring (SRM) for isotope-labeled acyl CoAs. […] SRM signal areas for isotope-labeled acyl CoAs were measured relative to the heptadecanoyl CoA I.S. using XCalibur software, and percent enzyme inhibition determined by comparing 13C18-oleoyl CoA quantities between treatment and DMSO control assays. […]

A short description of data set [1]: Single dose pharmacokinetics in fasted male C57BL/6 mice (PO or IV). The class given is in vivo, mouse. The protocol:
Pharmacokinetic assessment was performed for SSI-4 administered to fasted male C57BL/6 mice either intravenously (IV) or by oral gavage (PO) in DMSO:PEG400:water (10:70:20) as a clear solution at 5 mg/mL (IV dosing), and 1.3 or 10 mg/mL (respectively for the PO dosing). Serum analysis was performed by LC-MS-MS. PK calculation settings were obtained using the Phoenix WinNonlin 6.3 program, using either the Noncompartmental model 201 (IV bolus input) or Noncompartmental model 200 (extravascular input). Microsomes were isolated from murine liver using Microsome Isolation Kit (BioVision). Each assay (100 μL) contained 50 μg of microsomes, 1 μL of DMSO (for no drug controls) or DMSO-solubilized SCD1 inhibitor, 1 mM reduced NADH, 60 µM coenzyme A, 1 mM ATP, 1 mM DTT, and 5 mM MgCl2 in 100 mM sodium phosphate buffer (pH 7.4). […] To quantify biotransformation of 13C18-stearoyl CoA to 13C18-oleoyl CoA for drug treatments relative to vehicle controls, supernatants were evaluated using the LC/MS2 acyl CoA quantitation method of Magnes et al. and adapting selected reaction monitoring (SRM) for isotope-labeled acyl CoAs. […] SRM signal areas for isotope-labeled acyl CoAs were measured relative to the heptadecanoyl CoA I.S. using XCalibur software, and percent enzyme inhibition determined by comparing 13C18-oleoyl CoA quantities between treatment and DMSO control assays. […]

In another data set the target is 468 kinases. Kind of data set: Full matrix kinome scan, binding to 468 kinases. Further details: species or system human. The procedure: Kinome Scan was conducted by Lead Hunter Discovery Services
The nature of data set [2]: Seven day oral toxicity test in Sprague Dawley rats. The class given is in vivo, rat. The protocol: Sprague dawley rats (6-8 weeks old M/F) were orally gavaged with SS1-4 at the indicated dose daily, for a duration of seven days. For each dose levels 3 male and 3 females were placed on study. Rats were clinically observed and weighed daily. On day 8 rats were euthanatized and blood was collected by cardiac puncture. Blood chemistry was measured by STAT Veterinary laboratory.

A further data set relates to HCC cell lines. Kind of data set: Proliferation assay in HCC cell lines. Type of data set: cell-based.
The test system of data set [3] is Normal human hepatocytes (HH) cells. Kind of data set: Proliferation assay in normal human hepatocytes. To be noted: 1 μM. The class given is cell-based.
In data set [4] the test system is SSI4 responsive HCC cells. Kind of data set: Lipid assay, unsaturated fatty acids in HCC cells. Type of data set: cell-based. To be noted: 1 μM, 48 hour treatment. The procedure: Cells were treated for 48 hours with 1 μM SSI4 and lipids from 8 million cells were extracted using the 1957 Folch Lipid Extraction method. Lipids were re-suspended in DMSO and analyzed using Cell Biolab's lipid quantitation assay kit. Borosilicate glass tubes and polypropylene tips and plates were used during the experiments. Samples were read at OD540 nm and were background corrected on a Spectramax M3 spectrophotometer.

The test system of data set [5] is SSI-4 responsive HCC cells. Kind of data set: Soft agar colony formation assay. Type of data set: cell-based. The procedure:
Soft agar cultures were prepared by diluting 2× growth medium 1:1 in 1.5% Seaplaque GTG agarose with 1000 cells/plate in 6-well culture dishes. Colonies were stained with Giemsa after 3 weeks and colonies larger than 150 μm were counted using Image J software.

The test system of data set [6] is cMyc, survivin, cyclin D1, cleaved PARP, BIP. Kind of data set: Western blot analysis of HCC cell lines. The class given is cell-based. The procedure:
Cells were collected via scraping and lysed in RIPA extraction buffer containing protease inhibitor cocktail and phosphatase inhibitor. Protein concentrations were measured by bicinchoninic acid (BCA) assay and 30 μg were loaded on 4-12% Bis-Tris/MES gels and then transferred to 0.2 μm Immobilon-P membranes. The membranes were hybridized overnight at 4° C. with the following antibodies: SCD1, PARP, survivin, c-Myc, BIP and β-actin. Secondary species-specific horseradish peroxidase-labeled antibodies were from Jackson Immunoresearch. Detection was performed using Supersignal chemiluminescence kit.
A general note: Immunoblotting shows a protein as a band on a membrane.

For a further data set, the system named is PAX148 HCC PDTX. Kind of data set: PAX148 HCC PDTX mouse model. The class given is in vivo. The note with it: daily SSI-4 20-50 mg/kg oral, high LDHA model. The procedure: (§1) Tissues were cut into 4×4×4 mm cubes and surgically implanted under anesthesia with 100 μl Matrigel into 4-6 week old athymic nude female mice. Tumors were measured 1 to 2 times per week using calipers and volumes calculated by […]*(L×W×H). Once tumors reached ˜100 mm3, either placebo or SSI-4 treatment was administered at 180, or 600 mg/kg in custom AIN76 animal chow by Research Diets, Inc. Based upon food consumption, the amount of SSI4 ingested was 20 mg/kg and 50 mg/kg, respectively. For the combination study, mice were administered either 10 mg/kg SSI4, 30 mg/kg sorafenib or both in Nutra-gel diet.

Another data set has as its system LIV58 HCC PDTX. Kind of data set: LIV58 HCC PDTX mouse model. The class given is in vivo. The protocol:
as §1
FFPE tissues were cut into 5 μm sections, deparaffinized, hydrated, antigen retrieved for 25 minutes at pH 6.0 and blocked for 5 minutes with Dako diluent. Immunostaining was done for 1 hour with either lamin A+C, SCD1, c-Myc, survivin, LDHA, ki67, and BIP primary antibodies. For detection, the Envision Dual Labeled Polymer kit (Dako) was used for 30 minutes for anti-species secondary antibodies and stained with DAB chromagen for 5 minutes. Then, lightly counterstained with Gill I hematoxylin for 30 seconds before dehydration and mounting. Images were obtained at 20× using an Aperio AT2 Scanscope. IHC scoring was done using an algorithm in the Imagescope software based upon signal intensity of weak (1+), moderate (2+) or strong staining (3+) with criteria of at least 20% positivity. H score was calculated based upon signal intensity (0-3) using the formula: [(1+%×1)+(2+%×2)+(3+%×3)].

For a further data set, the system named is HLE HCC mouse model. Kind of data set: HLE HCC mouse model, combination study. The class given is in vivo. To be noted: 10 mg/kg SSI4, 30 mg/kg sorafenib or both. The procedure:
as §1

The subject of data set [7] is human (CX-004T2 and HUCCT1) cholangiocarcinoma (CCA) cell lines. Kind of data set: Proliferation of human CCA cell lines. Type of data set: cell-based. To be noted: 0.1-1 μM, 5 day exposure.
In data set [8] the test system is mouse (M1-1a and M6-1b) cholangiocarcinoma (CCA) cell lines. Kind of data set: Proliferation of mouse CCA cell lines. Type of data set: cell-based. To be noted: 0.1-1 μM, 5 day exposure.
A further data set concerns CX-003 CCA PDTX. Kind of data set: CX-003 CCA PDTX mouse model (c-Myc negative). The class given is in vivo. To be noted: 50 mg/kg oral daily. The protocol:
as §1

The test system of a further data set is HLF cells. Kind of data set: Combination proliferation assay in HLF cells (Chou and Talalay). The note with it: in combination with SSI-4. The class given is cell-based.

Where only a bound is given, the exact number is not on record here.

Method for HLF cells: Cell lines were maintained in DMEM media supplemented with sodium pyruvate, HEPES, non-essential amino acids, 3% FBS and antibiotics. Cells were plated at 30,000 cells per well in 12-well plate and treated for 4-5 days at the indicated doses with SSI4 and sorafenib diluted in DMSO at 1:1000. Cell number was determined by using a Coulter Particle Counter.

With `CNC(=O)c1ccnc(NC(=O)N2CCC(Oc3ccccc3Cl)CC2)c1` [SSI-4, 2-{[4-(2-Chlorophenoxy)piperidine-1-carbonyl]amino}-N-methylpyridine-4-carboxamide], the figures for the IC50 against SCD1 and with HCC cell lines (other (non-responsive) HCC cell lines) were 1.9 nM and ≥ 10000 nM, respectively. The same molecule had a half-life in [1] (male, C57BL/6, mouse, serum, following a single oral dose) of 3 to 4 h. In addition, the oral bioavailability entry in [1] (single dose, mice) is reported as “excellent oral bioavailability”. Besides, the “kinases found to bind (of 468)” value is on record as “none” on 468 kinases (SSI-4 at 10 nM) and 1 on 468 kinases (SSI-4 at 100 nM, kinase bound is CDKL2). In [2] (day 8), the blood chemistries entry was “in normal range”. Further, the toxicity entry in data set [2] (male or female rats, daily oral for seven days) is recorded as “Little to no toxicity”. In data set [2] (males, 300 mg/kg), this molecule gave a weight loss of 6%. Also, the “proliferation response in HCC cells silenced for cMyc with shRNA” value with HCC cell lines (1 uM SSI-4, c-Myc 1657 shRNA) was “blunted response”. Besides, in data set [3], the growth inhibition entry is on record as “not growth inhibited”. For the same molecule, the “levels of unsaturated fatty acids” value in [4] is listed as “decreased”. Also, the “colony formation in soft agar” value in data set [5] is given as “decreased colony formation”. Moreover, the “ER stress (BIP)” value in data set [6] is reported as “inducing”. The “Wnt regulated genes (cMyc, survivin and cyclin D1) protein” value in data set [6] is given as “down-regulated”. In data set [6], the “apoptosis (cleaved PARP)” value is “inducing apoptosis”. Besides, the “antitumor response (tumor volume)” value with PAX148 HCC PDTX is “highly sensitive”; with LIV58 HCC PDTX (daily SSI-4 20-50 mg/kg oral, low LDHA model), ~30%; in the data set with CX-003 CCA PDTX it was “no response”. The “BIP, biomarker of ER stress (IHC)” value in the data set with LIV58 HCC PDTX (LIV58 tumors) is “upregulated”. Further, the “Ki-67, survivin and cMyc (IHC)” value in the data set with LIV58 HCC PDTX (LIV58 tumors) is on record as “attenuated”. Besides, in the data set on HLE HCC mouse model, the “in vivo tumor response over time” value is listed as “escape over time on therapy”. In addition, the cell growth result in [7] and in data set [8] was “growth inhibition” throughout.

In the data set with HCC cell lines (all cell lines tested), `CNC(=O)c1cc(Oc2ccc(NC(=O)Nc3ccc(Cl)c(C(F)(F)F)c3)cc2)ccn1` [sorafenib, reference compound] registered an IC50 of 1700 to 6400 nM. Also, the “in vivo tumor response over time” value in the data set on HLE HCC mouse model was “escape over time on therapy”.

`CNC(=O)c1cc(Oc2ccc(NC(=O)Nc3ccc(Cl)c(C(F)(F)F)c3)c(F)c2)ccn1` [Regorafenib]: the “synergy by Chou and Talalay method” value with HLF cells is on record as “exhibited synergy”.

In general, IC50 refers to the concentration that inhibits the measured activity by half. Low values mean higher potency, high ones lower potency. What is called half-life is the time needed for the level to fall by half in the phase considered. The low end stands for rapid decline, the high end for slow decline.
